Data: patent publication EP0918774B9, “ANDROGEN RECEPTOR MODULATOR COMPOUNDS AND METHODS” (LIGAND PHARMACEUTICALS INCORPORATED, priority 1996, dated 1997)
Read-outs that look alike come from different tables or passages of the source.

How the values were obtained:
[1] = target: T1, human AR (Homo sapiens, UniProt P10275); test: cell-based; assay type: binding
T1 construct: expressed in transfected cells; host or cells: CV-1 cells (African green monkey kidney fibroblasts), transient calcium phosphate transfection
T1 sequence (P10275 1-920): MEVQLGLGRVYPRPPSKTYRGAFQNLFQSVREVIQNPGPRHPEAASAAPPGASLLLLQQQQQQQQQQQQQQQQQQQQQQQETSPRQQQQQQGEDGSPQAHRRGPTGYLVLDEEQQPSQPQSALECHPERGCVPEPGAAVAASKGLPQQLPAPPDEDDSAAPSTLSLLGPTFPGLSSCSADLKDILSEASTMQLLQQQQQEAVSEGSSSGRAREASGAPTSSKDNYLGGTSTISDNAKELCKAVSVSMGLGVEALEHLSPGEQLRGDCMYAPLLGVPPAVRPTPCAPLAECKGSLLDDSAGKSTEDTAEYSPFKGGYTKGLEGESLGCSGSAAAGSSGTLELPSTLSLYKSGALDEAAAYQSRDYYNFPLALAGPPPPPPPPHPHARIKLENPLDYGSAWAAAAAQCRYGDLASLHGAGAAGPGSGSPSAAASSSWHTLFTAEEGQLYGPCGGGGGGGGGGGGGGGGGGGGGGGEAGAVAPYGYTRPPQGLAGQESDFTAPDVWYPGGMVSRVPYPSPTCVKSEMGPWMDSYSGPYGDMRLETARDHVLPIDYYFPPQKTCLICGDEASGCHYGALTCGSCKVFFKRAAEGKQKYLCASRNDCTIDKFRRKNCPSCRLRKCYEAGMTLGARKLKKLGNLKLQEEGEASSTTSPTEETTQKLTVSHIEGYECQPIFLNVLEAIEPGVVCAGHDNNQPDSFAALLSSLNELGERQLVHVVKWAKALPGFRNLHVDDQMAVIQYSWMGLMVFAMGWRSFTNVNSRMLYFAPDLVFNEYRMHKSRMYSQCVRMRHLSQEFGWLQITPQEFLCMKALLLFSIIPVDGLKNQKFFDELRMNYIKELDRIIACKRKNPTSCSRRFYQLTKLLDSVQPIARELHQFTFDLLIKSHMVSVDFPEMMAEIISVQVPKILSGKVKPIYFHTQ

[2] = target: T1, human AR; test: cell-based; assay type: cell-based; details: for AR Antagonist CV-1 Cells Efficacy (%): % of maximal inhibition, fixed DHT at EC50; for AR Agonist CV-1 Cells Efficacy (%): percent maximal response relative to reference agonist DHT; for AR agonist/antagonist profile (in words): co-transfection assay, summary of Tables 1-2
Excerpt: The co-transfection assay provides a method for identifying functional agonists and partial agonists which mimic, or antagonists which inhibit, the effect of native hormones, and quantifying their activity for responsive IR proteins. In this regard, the co-transfection assay mimics an in vivo system in the laboratory. Importantly, activity in the co-transfection assay correlates very well with known in vivo activity, such that the co-transfection assay functions as a qualitative and quantitative predictor of a tested compounds in vivo pharmacology. See, e.g., T. Berger et al. 41 J. Steroid Biochem. Molec.
(§1) CV-1 cells (African green monkey kidney fibroblasts) were cultured in the presence of Dulbecco's Modified Eagle Medium (DMEM) supplemented with 10% charcoal resinstripped fetal bovine serum then transferred to 96-well microtiter plates one day prior to transfection.
The reporter plasmid, MTV-LUC, contains the cDNA for firefly luciferase (LUC) under control of the mouse mammary tumor virus (MTV) long terminal repeat, a conditional promoter containing an androgen response element. See e.g, Berger et al. supra. In addition, pRS-β-Gal, coding for constitutive expression of E. colβ-galactosidase (β-Gal), was included as an internal control for evaluation of transfection efficiency and compound toxicity.
(§2) Three to four replicates were used for each sample.
(§3) After 40 hours, the cells were washed with PBS, lysed with a Triton X-100-based buffer and assayed for LUC and β-Gal activities using a luminometer or spectrophotometer, respectively. For each replicate, the normalized response (NR) was calculated as: LUC response/β-Gal rate where β-Gal rate = β-Gal•1x10^-5/β-Gal incubation time.

[3] = target: T2, PR (Homo sapiens, UniProt P06401); test: Co-transfection assay, PR agonist mode; assay type: cell-based; design: expressed in transfected cells; host or cells: CV-1 cells
T2 sequence (P06401 1-933): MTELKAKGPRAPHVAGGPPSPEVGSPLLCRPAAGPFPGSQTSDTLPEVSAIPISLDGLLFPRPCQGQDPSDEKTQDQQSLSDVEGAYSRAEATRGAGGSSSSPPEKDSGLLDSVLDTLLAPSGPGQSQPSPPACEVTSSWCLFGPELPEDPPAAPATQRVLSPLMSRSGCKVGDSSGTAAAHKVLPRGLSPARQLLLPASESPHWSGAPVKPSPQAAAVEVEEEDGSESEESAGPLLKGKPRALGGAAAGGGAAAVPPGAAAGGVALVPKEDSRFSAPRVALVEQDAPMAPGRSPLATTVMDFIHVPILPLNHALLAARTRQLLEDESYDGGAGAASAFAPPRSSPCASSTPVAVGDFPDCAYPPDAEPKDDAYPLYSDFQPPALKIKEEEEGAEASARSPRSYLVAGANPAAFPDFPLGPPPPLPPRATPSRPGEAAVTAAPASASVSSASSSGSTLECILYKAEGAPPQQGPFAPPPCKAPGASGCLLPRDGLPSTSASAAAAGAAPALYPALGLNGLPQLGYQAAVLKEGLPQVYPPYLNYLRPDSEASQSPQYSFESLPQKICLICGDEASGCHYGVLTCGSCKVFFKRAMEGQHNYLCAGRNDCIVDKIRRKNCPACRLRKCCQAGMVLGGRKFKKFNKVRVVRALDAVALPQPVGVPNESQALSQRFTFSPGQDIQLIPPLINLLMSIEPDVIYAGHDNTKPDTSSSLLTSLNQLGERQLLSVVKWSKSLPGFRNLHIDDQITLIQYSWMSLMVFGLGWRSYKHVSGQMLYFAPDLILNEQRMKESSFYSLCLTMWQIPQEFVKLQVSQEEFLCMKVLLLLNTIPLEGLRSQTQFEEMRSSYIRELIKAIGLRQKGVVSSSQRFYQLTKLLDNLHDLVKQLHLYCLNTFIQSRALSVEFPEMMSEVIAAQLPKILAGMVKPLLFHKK
Experimental: as §1, §2, §3

SMILES	Ki [1] [nM]	EC50 [2] [µM]	AR Antagonist CV-1 Cells Efficacy (%) ([2]; na = not active)	AR Agonist CV-1 Cells Efficacy (%) ([2]; na = not active)	EC50 ([2]; read-out: AR Potency Agon, Table 2, na = not active) [µM]	EC50 [3] [µM]	IC50 [2] [nM]	AR agonist/antagonist profile (in words) [2]	EC50 ([2]; read-out: AR Agonist CV-1 Cells Potency, agonist potency EC50, na = not active) [µM]
Cn1c(=O)c(F)c(C(F)(F)F)c2cc3c(cc21)N1CCCC1(C)CC3 (racemic) [Compound 104, (R/S)-3-Fluoro-6,7,7a,11-tetrahydro-1,7a-dimethyl-4-trifluoromethyl-2-pyridono[5.6-g]pyrrolidino[1,2-a]quinoline]	159	> 10	86	na (not active (i.e. efficacy of <20 and potency of >10,000))	> 10	> 10	–	–	–
CC1(C)CCc2cc3c(C(F)F)c(F)c(=O)[nH]c3cc2N1 [Compound 106, 6-Difluoromethyl-7-fluoro-1,2,3,4-tetrahydro-2,2-dimethyl-8-pyridono[5,6-g]quinoline]	–	> 10	83	na (not active (i.e. efficacy of <20 and potency of >10,000))	–	–	60	–	–
Cn1c(=O)c(F)c(C(F)(F)F)c2cc3c(cc21)NC(C)(C)CC3 [Compound 107, 7-Fluoro-1,2,3,4-tetrahydro-2,2,9-trimethyl-6-trifluoromethyl-8-pyridono[5,6-g]quinoline]	–	> 10	79	na (not active (i.e. efficacy of <20 and potency of >10,000))	–	–	47	–	–
CN1c2cc3c(cc2CCC1(C)C)c(C(F)(F)F)c(F)c(=O)n3C [Compound 109, 7-Fluoro-1,2,3,4-tetrahydro-1,2,2,9-tetramethyl-6-trifluoromethyl-8-pyridono[5,6-g]quinoline]	–	> 10	86	na (not active (i.e. efficacy of <20 and potency of >10,000))	–	–	12	highly selective AR antagonists	–
CC1=CC(C)(C)Nc2cc3[nH]c(=O)c(F)c(C(F)(F)F)c3cc21 [Compound 111, 7-Fluoro-1,2-dihydro-2,2,4-trimethyl-6-trifluoromethyl-8-pyridono[5,6-g]quinoline]	804	–	50	20%	–	–	–	mixed AR agonists/antagonists	–
CC1CC(C)(C)Nc2cc3[nH]c(=O)c(F)c(C(F)(F)F)c3cc21 (centres unmarked) [Compound 112, 7-Fluoro-1,2,3,4-tetrahydro-2,2,4-trimethyl-6-trifluoromethyl-8-pyridono[5,6-g]quinoline]	–	–	49	–	–	–	–	highly selective AR antagonists	–
CC1CC(C)(C)n2oc(=O)c3c4[nH]c(=O)cc(C(F)(F)F)c4cc1c32 (centres unmarked) [Compound 113, 1,10-[1,3-dihydro-3-oxo-(2,1-isoxazolyl)]-1,2,3,4-tetrahydro-2,2,4,10-tetramethyl-6-trifluoromethyl-8-pyridono[5,6-g]quinoline]	17	–	48	26%	–	–	–	mixed AR agonists/antagonists	–
CC1=CC(C)(C)Nc2c1cc1c(C(F)(F)F)c(F)c(=O)[nH]c1c2C [Compound 114, 7-Fluoro-1,2-dihydro-2,2,4,10-tetramethyl-6-trifluoromethyl-8-pyridono[5,6-g]quinoline]	–	> 10	90	na (not active (i.e. efficacy of <20 and potency of >10,000))	–	–	–	–	–
Cc1c2c(cc3c(C(F)(F)F)c(F)c(=O)[nH]c13)C(C)CC(C)(C)N2 (centres unmarked) [Compound 115, 7-Fluoro-1,2,3,4-tetrahydro-2,2,4,10-tetramethyl-6-trifluoromethyl-8-pyridono[5,6-g]quinoline]	–	> 10	88	na (not active (i.e. efficacy of <20 and potency of >10,000))	–	–	101	–	–
Cc1c2c(cc3c(C(F)(F)F)c(F)c(=O)n(C)c13)C(C)CC(C)(C)N2 (centres unmarked) [Compound 116, 7-Fluoro-1,2,3,4-tetrahydro-2,2,4,9,10-pentamethyl-6-trifluoromethyl-8-pyridono[5,6-g]quinoline]	–	> 10	20	na (not active (i.e. efficacy of <20 and potency of >10,000))	–	–	–	–	–
Cc1c2c(cc3c(C(F)(F)F)c(F)c(=O)[nH]c13)C(C)CC(C)(C)N2C (centres unmarked) [Compound 117, 7-Fluoro-1,2,3,4-tetrahydro-1,2,2,4,10-pentamethyl-6-trifuluoromethyl-8-pyridono[5,6-g]quinoline]	–	–	81	na (not active (i.e. efficacy of <20 and potency of >10,000))	–	–	–	–	> 10
CCC1(CC)CCc2cc3c(C(F)(F)F)c(F)c(=O)[nH]c3cc2N1 [Compound 120, 2,2-Diethyl-7-fluoro-1,2,3,4-tetrahydro-6-trifluoromethyl-8-pyridono[5,6-g]quinoline]	–	–	61	–	–	–	25	–	–
